Reference: patent US11111237B2, “Bicyclic compound and use thereof” (SK BIOPHARMACEUTICALS CO., LTD., priority 2019, dated 2021)

Molecular target: PRMT5-MEP50 enzyme complex (Homo sapiens (Human), UniProt O14744)
Test: PRMT5 enzyme activity in vitro assay (methylation of histone H4R3, ELISA absorbance at 450 nm)
Format: biochemical
Conditions: SAM, histone H4 peptide, room temperature 2 hours, 8 points from 10 μM to 0.128 nM
Outline: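 Human PRMT5-MEP50 was prepared at 5 μg/mL with SAM at 2 μM and reacted 2 h at room temperature on plate-coated histone H4 (1-20) peptide. An 8-point 1:5 compound series ran from 10 μM to 0.128 nM. H4R3 methylation was detected by antibody/HRP ELISA at 450 nm to give IC50.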

Chain of PRMT5-MEP50 enzyme complex (O14744 2-637): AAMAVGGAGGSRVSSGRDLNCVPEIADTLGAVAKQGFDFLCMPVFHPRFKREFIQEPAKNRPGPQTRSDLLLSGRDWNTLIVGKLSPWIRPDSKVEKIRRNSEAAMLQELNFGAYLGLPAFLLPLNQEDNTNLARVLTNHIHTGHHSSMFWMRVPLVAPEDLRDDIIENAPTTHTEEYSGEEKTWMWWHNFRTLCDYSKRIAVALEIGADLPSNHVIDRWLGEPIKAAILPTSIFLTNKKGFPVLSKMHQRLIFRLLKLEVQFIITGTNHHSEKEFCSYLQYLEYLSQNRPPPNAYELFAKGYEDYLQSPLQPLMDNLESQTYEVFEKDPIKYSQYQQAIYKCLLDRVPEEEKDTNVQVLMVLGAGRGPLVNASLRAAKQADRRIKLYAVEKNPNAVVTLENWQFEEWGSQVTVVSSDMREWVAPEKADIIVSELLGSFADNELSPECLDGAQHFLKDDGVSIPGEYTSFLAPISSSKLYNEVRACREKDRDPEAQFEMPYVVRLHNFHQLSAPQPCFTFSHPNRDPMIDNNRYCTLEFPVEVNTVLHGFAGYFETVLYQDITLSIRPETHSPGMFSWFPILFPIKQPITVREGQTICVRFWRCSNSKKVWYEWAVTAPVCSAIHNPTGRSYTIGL
Chain of PRMT5-MEP50 enzyme complex (Q9BQA1 2-342 partner): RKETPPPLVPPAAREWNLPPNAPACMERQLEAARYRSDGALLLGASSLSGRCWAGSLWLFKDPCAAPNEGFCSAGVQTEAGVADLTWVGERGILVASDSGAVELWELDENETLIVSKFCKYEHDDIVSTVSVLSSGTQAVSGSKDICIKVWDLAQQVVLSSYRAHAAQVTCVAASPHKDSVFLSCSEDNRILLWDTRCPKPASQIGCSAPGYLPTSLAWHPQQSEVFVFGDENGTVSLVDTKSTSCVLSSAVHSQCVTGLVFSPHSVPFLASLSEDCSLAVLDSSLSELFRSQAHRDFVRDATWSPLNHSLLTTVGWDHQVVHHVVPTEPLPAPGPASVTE

SMILES	IC50 [nM]
CC(=O)N1CCCC(Oc2ccc3c(c2)OCCN(C[C@H](O)CN2CCc4ccccc4C2)C3=O)C1 (stereo partly drawn) [Example 79, 8-[(1-acetyl-3-piperidyl)oxy]-4-[(2R)-3-(3,4-dihydro-1H-isoquinolin-2-yl)-2-hydroxy-propyl]-2,3-dihydro-1,4-benzoxazepin-5-one]	100 to 1000
CC(=O)N1CCC(Oc2ccc3c(c2)OCCN(C[C@H](O)CN2CCc4ccccc4C2)C3=O)C1 (stereo partly drawn) [Example 80, 8-(1-acetylpyrrolidin-3-yl)oxy-4-[(2R)-3-(3,4-dihydro-1H-isoquinolin-2-yl)-2-hydroxy-propyl]-2,3-dihydro-1,4-benzoxazepin-5-one]	100 to 1000
CC(=O)N1CC[C@@H](Oc2ccc3c(c2)OCCN(C[C@H](O)CN2CCc4ccccc4C2)C3=O)C1 [Example 81, 8-[(3R)-1-acetylpyrrolidin-3-yl]oxy-4-[(2R)-3-(3,4-dihydro-1H-isoquinolin-2-yl)-2-hydroxy-propyl]-2,3-dihydro-1,4-benzoxazepin-5-one]	1 to 100
CC(=O)N1CC[C@H](Oc2ccc3c(c2)OCCN(C[C@H](O)CN2CCc4ccccc4C2)C3=O)C1 [Example 82, 8-[(3S)-1-acetylpyrrolidin-3-yl]oxy-4-[(2R)-3-(3,4-dihydro-1H-isoquinolin-2-yl)-2-hydroxy-propyl]-2,3-dihydro-1,4-benzoxazepin-5-one]	100 to 1000
CC(=O)N1CC(Oc2ccc3c(c2)OCCN(C[C@H](O)CN2CCc4ccccc4C2)C3=O)C1 [Example 83, 8-(1-acetylazetidin-3-yl)oxy-4-[(2R)-3-(3,4-dihydro-1H-isoquinolin-2-yl)-2-hydroxy-propyl]-2,3-dihydro-1,4-benzoxazepin-5-one]	100 to 1000
CCC(=O)N1CC(Oc2ccc3c(c2)OCCN(C[C@H](O)CN2CCc4ccccc4C2)C3=O)C1 [Example 84, 4-[(2R)-3-(3,4-dihydro-1H-isoquinolin-2-yl)-2-hydroxy-propyl]-8-(1-propanoylazetidin-3-yl)oxy-2,3-dihydro-1,4-benzoxazepin-5-one]	100 to 1000
O=C1c2ccc(OC3CN(C(=O)C4CC4)C3)cc2OCCN1C[C@H](O)CN1CCc2ccccc2C1 [Example 85, 8-[1-(cyclopropanecarbonyl)azetidin-3-yl]oxy-4-[(2R)-3-(3,4-dihydro-1H-isoquinolin-2-yl)-2-hydroxy-propyl]-2,3-dihydro-1,4-benzoxazepin-5-one]	1 to 100
COC(=O)N1CC(Oc2ccc3c(c2)OCCN(C[C@H](O)CN2CCc4ccccc4C2)C3=O)C1 [Example 86, methyl 3-[[4-[(2R)-3-(3,4-dihydro-1H-isoquinolin-2-yl)-2-hydroxy-propyl]-5-oxo-2,3-dihydro-1,4-benzoxazepin-8-yl]oxy]azetidin-1-carboxylate]	100 to 1000
CC(C)N1CCC(Oc2ccc3c(c2)OCCN(C[C@H](O)CN2CCc4ccccc4C2)C3=O)CC1 [Example 89, 4-[(2R)-3-(3,4-dihydro-1H-isoquinolin-2-yl)-2-hydroxy-propyl]-8-[(1-isopropyl-4-piperidyl)oxy]-2,3-dihydro-1,4-benzoxazepin-5-one]	1 to 100
O=C1c2ccc(OC3CCN(C4CC4)CC3)cc2OCCN1C[C@H](O)CN1CCc2ccccc2C1 [Example 90, 8-[(1-cyclopropyl-4-piperidyl)oxy]-4-[(2R)-3-(3,4-dihydro-1H-isoquinolin-2-yl)-2-hydroxy-propyl]-2,3-dihydro-1,4-benzoxazepin-5-one]	1 to 100
O=C1c2ccc(OC3CCN(C4CCC4)CC3)cc2OCCN1C[C@H](O)CN1CCc2ccccc2C1 [Example 91, 8-[(1-cyclobutyl-4-piperidyl)oxy]-4-[(2R)-3-(3,4-dihydro-1H-isoquinolin-2-yl)-2-hydroxy-propyl]-2,3-dihydro-1,4-benzoxazepin-5-one]	100 to 1000
CN1CC(Oc2ccc3c(c2)OCCN(C[C@H](O)CN2CCc4ccccc4C2)C3=O)C1 [Example 93, 4-[(2R)-3-(3,4-dihydro-1H-isoquinolin-2-yl)-2-hydroxy-propyl]-8-(1-methylazetidin-3-yl)oxy-2,3-dihydro-1,4-benzoxazepin-5-one]	100 to 1000
CCN1CC(Oc2ccc3c(c2)OCCN(C[C@H](O)CN2CCc4ccccc4C2)C3=O)C1 [Example 94, 4-[(2R)-3-(3,4-dihydro-1H-isoquinolin-2-yl)-2-hydroxy-propyl]-8-(1-ethylazetidin-3-yl)oxy-2,3-dihydro-1,4-benzoxazepin-5-one]	100 to 1000
CC(C)N1CC(Oc2ccc3c(c2)OCCN(C[C@H](O)CN2CCc4ccccc4C2)C3=O)C1 [Example 95, 4-[(2R)-3-(3,4-dihydro-1H-isoquinolin-2-yl)-2-hydroxy-propyl]-8-(1-isopropylazetidin-3-yl)oxy-2,3-dihydro-1,4-benzoxazepin-5-one]	100 to 1000
O=C1c2ccc(OC3CN(C4COC4)C3)cc2OCCN1C[C@H](O)CN1CCc2ccccc2C1 [Example 96, 4-[(2R)-3-(3,4-dihydro-1H-isoquinolin-2-yl)-2-hydroxy-propyl]-8-[1-(oxetan-3-ylyl)azetidin-3-yl]oxy-2,3-dihydro-1,4-benzoxazepin-5-one]	100 to 1000
CCN1CC(COc2ccc3c(c2)OCCN(C[C@H](O)CN2CCc4ccccc4C2)C3=O)C1 [Example 97, 4-[(2R)-3-(3,4-dihydro-1H-isoquinolin-2-yl)-2-hydroxy-propyl]-8-[(1-ethylazetidin-3-yl)methoxy]-2,3-dihydro-1,4-benzoxazepin-5-one]	100 to 1000
CN1CCC(Oc2ccc3c(c2)OCCN(C[C@H](O)CN2CCc4ccccc4C2)C3=O)C1 (stereo partly drawn) [Example 98, 4-[(2R)-3-(3,4-dihydro-1H-isoquinolin-2-yl)-2-hydroxy-propyl]-8-(1-methylpyrrolidin-3-yl)oxy-2,3-dihydro-1,4-benzoxazepin-5-one]	100 to 1000
CCN1CC[C@@H](Oc2ccc3c(c2)OCCN(C[C@H](O)CN2CCc4ccccc4C2)C3=O)C1 [Example 99, 4-[(2R)-3-(3,4-dihydro-1H-isoquinolin-2-yl)-2-hydroxy-propyl]-8-[(3R)-1-ethylpyrrolidin-3-yl]oxy-2,3-dihydro-1,4-benzoxazepin-5-one]	100 to 1000
CC(C)N1CCC[C@H]1COc1ccc2c(c1)OCCN(C[C@H](O)CN1CCc3ccccc3C1)C2=O [Example 101, 4-[(2R)-3-(3,4-dihydro-1H-isoquinolin-2-yl)-2-hydroxy-propyl]-8-[[(2S)-1-isopropylpyrrolidin-2-yl]methoxy]-2,3-dihydro-1,4-benzoxazepin-5-one]	100 to 1000
CN1CCC(COc2ccc3c(c2)OCCN(C[C@H](O)CN2CCc4ccccc4C2)C3=O)CC1 [Example 102, 4-[(2R)-3-(3,4-dihydro-1H-isoquinolin-2-yl)-2-hydroxy-propyl]-8-[(1-methyl-4-piperidyl)methoxy]-2,3-dihydro-1,4-benzoxazepin-5-one]	100 to 1000
CCN1CCC(COc2ccc3c(c2)OCCN(C[C@H](O)CN2CCc4ccccc4C2)C3=O)CC1 [Example 103, 4-[(2R)-3-(3,4-dihydro-1H-isoquinolin-2-yl)-2-hydroxy-propyl]-8-[(1-ethyl-4-piperidyl)methoxy]-2,3-dihydro-1,4-benzoxazepin-5-one]	100 to 1000
CN1CCOC(COc2ccc3c(c2)OCCN(C[C@H](O)CN2CCc4ccccc4C2)C3=O)C1 (stereo partly drawn) [Example 104, 4-[(2R)-3-(3,4-dihydro-1H-isoquinolin-2-yl)-2-hydroxy-propyl]-8-[(4-methylmorpholin-2-yl)methoxy]-2,3-dihydro-1,4-benzoxazepin-5-one]	100 to 1000
CCN1CCOC(COc2ccc3c(c2)OCCN(C[C@H](O)CN2CCc4ccccc4C2)C3=O)C1 (stereo partly drawn) [Example 105, 4-[(2R)-3-(3,4-dihydro-1H-isoquinolin-2-yl)-2-hydroxy-propyl]-8-[(4-ethylmorpholin-2-yl)methoxy]-2,3-dihydro-1,4-benzoxazepin-5-one]	100 to 1000
CN1CCC(COc2ccc3c(c2)OCCN(C[C@H](O)CN2CCc4ccccc4C2)C3=O)C1 (stereo partly drawn) [Example 106, 4-[(2R)-3-(3,4-dihydro-1H-isoquinolin-2-yl)-2-hydroxy-propyl]-8-[(1-methylpyrrolidin-3-yl)methoxy]-2,3-dihydro-1,4-benzoxazepin-5-one]	100 to 1000
CN1CCCC(COc2ccc3c(c2)OCCN(C[C@H](O)CN2CCc4ccccc4C2)C3=O)C1 (stereo partly drawn) [Example 107, 4-[(2R)-3-(3,4-dihydro-1H-isoquinolin-2-yl)-2-hydroxy-propyl]-8-[(1-methyl-3-piperidyl)methoxy]-2,3-dihydro-1,4-benzoxazepin-5-one]	1 to 100
O=C1c2c(F)cc(CN3CCOCC3)cc2OCCN1C[C@H](O)CN1CCc2ccccc2C1 [Example 108, 4-[(2R)-3-(3,4-dihydro-1H-isoquinolin-2-yl)-2-hydroxy-propyl]-6-fluoro-8-(morpholinomethyl)-2,3-dihydro-1,4-benzoxazepin-5-one]	1000 to 10000
CN1CCC(Oc2cc(F)c3c(c2)OCCN(C[C@H](O)CN2CCc4ccccc4C2)C3=O)CC1 [Example 109, 4-[(2R)-3-(3,4-dihydro-1H-isoquinolin-2-yl)-2-hydroxy-propyl]-6-fluoro-8-[(1-methyl-4-piperidyl)oxy]-2,3-dihydro-1,4-benzoxazepin-5-one]	100 to 1000
CCN1CCC(Oc2ccc3c(c2)OC(C)(C)CN(C[C@H](O)CN2CCc4ccccc4C2)C3=O)CC1 [Example 110, 4-[(2R)-3-(3,4-dihydro-1H-isoquinolin-2-yl)-2-hydroxy-propyl]-8-[(1-ethyl-4-piperidyl)oxy]-2,2-dimethyl-3H-1,4-benzoxazepin-5-one]	100 to 1000
CC1(C)CN(C[C@H](O)CN2CCc3ccccc3C2)C(=O)c2ccc(CN3CCOCC3)cc2O1 [Example 111, 4-[(2R)-3-(3,4-dihydro-1H-isoquinolin-2-yl)-2-hydroxy-propyl]-2,2-dimethyl-8-(morpholinomethyl)-3H-1,4-benzoxazepin-5-one]	100 to 1000
CC1(C)CN(C[C@H](O)CN2CCc3ccccc3C2)C(=O)c2ccc(OCc3ccncc3)cc2O1 [Example 113, 4-[(2R)-3-(3,4-dihydro-1H-isoquinolin-2-yl)-2-hydroxy-propyl]-2,2-dimethyl-8-(4-pyridylmethoxy)-3H-1,4-benzoxazepin-5-one]	100 to 1000
